This note sets out measurements from patent US8598355B2, “Amide compound” (Astellas Pharma Inc., priority 2008, dated 2013).

The structures appear in SMILES notation.

Data set [1] deals with T1, rat EP4 receptor (Rattus norvegicus, UniProt P43114). Briefly: Evaluation test of rat EP4 receptor affinity ([3H]PGE2 binding, membrane fraction of HEK293 cells expressing rat EP4). On the set-up: expressed in transfected cells; host or cells: HEK293 cells, transient transfection with Lipofectamine 2000; membrane fraction. As to conditions: [3H]PGE2 0.3 nM. As for the experimental part: Evaluation Test of Rat EP4 Receptor Affinity
Cell Culturing and Transfection
Using a 10 cm collagen-coated dish (Asahi Glass), HEK293 cells were cultured in D-MEM culture medium, the culture medium was removed at a confluence (90 to 100% density state) and washed with a phosphate buffer saline (PBS), and then the cells were detached with N,N,N′,N′-tetrakis(carboxymethyl)ethylenediamine (EDTA). The number of the cells were counted and seeded on a 15 cm collagen-coated dish to a confluence of 70%. On the next day, to an Opti-MEM culture medium at 1.2 mL/dish was added Lipofectamine 2000 (Invitrogen) at 60 μL/dish, followed by leaving to stand at room temperature for 5 minutes. A plasmid in which rat EP4 (Sequence Number 1) had been inserted into a TA cloning site of pcDNA3.1-V5-His-topo was added thereto at 15 μg/dish. After leaving to stand at room temperature for 30 minutes, the resultant was added to the dish and cultured for 20 to 24 hours. The cell culture was carried out in a CO2 incubator (37° C., 5% CO2).
Preparation of Membrane Fraction
The culture medium was removed by suction, 10 mL of cooled PBS was added thereto per 15 cm dish, and the cells were scraped using a cell scraper (Sumitomo Bakelite). They were washed with cooled PBS (1,200 rpm, 4° C., 5 min), and then suspended in 6 mL of cooled 20 mM Tris-HCl (pH 7.4; Nakalai Tesque Inc., including 5 mM EDTA (Nakalai Tesque Inc.) per dish and the resultant was homogenized using a Polytron and the homogenate was centrifuged (26,000 rpm, 20 min, 4° C.). The obtained precipitate was resuspended in cooled 20 mM Tris-HCl and homogenized again using a Polytron, and the homogenate was centrifuged (26,000 rpm, 20 min, 4° C.). The obtained precipitate was resuspended in 50 mM HEPES (pH 7.5; Dojindo Laboratories) at 1 mL per dish, homogenized using a Polytron, and freeze-stored at −80° C. as a membrane fraction. At this time, a part thereof was used for the measurement of the protein concentration. Measurement of the protein concentration was carried out in duplicate using a Bio-Rad Protein assay kit (Bio-Rad Laboratories) in accordance with the appended standard Protocol.
[^3H]PGE2 50 μL (final concentration 0.3 nM; Perkin Elmer), 100 μL (20 μg/well) of a membrane fraction prepared from the rat EP4 expression cell and 50 μL of a test compound were mixed in a 96-well microplate (Sumitomo Bakelite), incubated at room temperature for 1 hour, filtered by suction on a UniFilter-96 GF/B (Perkin Elmer) using a FilterMate Harvester (Perkin Elmer), and then washed three times with 300 μL/well of a cooled assay buffer. Dilution of [^3H]PGE2 and the membrane fraction was carried out using an assay buffer (50 mM HEPES, 10 mM MgCl2), and dilution of the test compound and the unlabeled PGE2 was carried out using DMSO and an assay buffer. Further, in the case of the addition of a human serum albumin (HSA), dilution was carried out using an assay buffer containing 4% HSA (final concentration 1%; Sigma). The UniFilter-96 GF/B was treated preliminarily by washing twice with 200 μL/well of a cooled assay buffer. The UniFilter-96 GF/B after filtration was dried in a dryer overnight, 50 μL/well of MicroScint20 (Perkin Elmer) was added thereto, and then the radioactivity was measured using a TopCount (Perkin Elmer). For measurement of the non-specific binding, an unlabeled PGE2 (final concentration 1 μM; Cayman) was added. All of the measurements were carried out in duplicate, and the specific binding amount was determined by subtracting the non-specific binding amount from the total binding amount. The Ki value was calculated according to the general methods.
In the connection, Ex represents the below-described Example Compound number.

Data set [2] deals with T1, rat EP4 receptor. Briefly: In vivo rat EP4 receptor antagonistic activity (ONO-4819/LPS, plasma TNF-α). The settings on record: SD rat, oral. How it is done: Evaluation Test of In Vivo Rat EP4 Receptor Antagonistic Activity
A solution of PEG 400:20% Tween 80:aqueous 1 M NaHCO3 solution=1:4:5 of a test compound was orally administered to a SD rat (male, 6-week old) under non-fasting conditions, and after 1 hour, ONO-4819 was administered subcutaneously to the back of the rat. After 30 minutes, Lipopolysaccharide (LPS, 0.01 mg/kg) was administered to the tail vein without anesthesia, and after 60 minutes, 0.5 mL of heparin blood was collected from the fundus under ether anesthesia. The blood sample was centrifuged (3000 rpm, 10 minutes) to separate the plasma, and then the TNF-α concentration in the rat plasma was measured by an ELISA kit (see Hepatology Research Journal, vol. 21, 252-260, 2001). A value obtained by subtracting the TNF-α concentration of the group treated with ONO-4819 from the TNF-α concentration of the group not treated with ONO-4819 was taken as 100%, and the inhibitory rates to the value were calculated for the test compounds.
In this connection, Ex represents the below-described Example compound number.

In general, Ki refers to the dissociation constant of the complex between target and ligand, obtained from inhibition or displacement. For orientation: melting point means the temperature, or range, at which the solid turns liquid.

T1 sequence (P43114 whole entry): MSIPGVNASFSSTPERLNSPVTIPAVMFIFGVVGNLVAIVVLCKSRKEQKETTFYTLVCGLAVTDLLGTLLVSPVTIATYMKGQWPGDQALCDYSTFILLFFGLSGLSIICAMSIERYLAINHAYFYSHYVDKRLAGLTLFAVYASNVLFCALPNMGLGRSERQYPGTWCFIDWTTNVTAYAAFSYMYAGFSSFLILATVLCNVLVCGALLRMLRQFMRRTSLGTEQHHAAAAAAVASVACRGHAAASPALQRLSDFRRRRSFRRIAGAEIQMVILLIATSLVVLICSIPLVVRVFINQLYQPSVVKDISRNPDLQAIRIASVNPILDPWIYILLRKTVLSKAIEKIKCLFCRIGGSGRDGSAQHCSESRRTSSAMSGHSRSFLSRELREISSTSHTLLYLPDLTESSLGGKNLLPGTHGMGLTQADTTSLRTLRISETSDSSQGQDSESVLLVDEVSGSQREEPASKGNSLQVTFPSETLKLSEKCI

As to `O=C(NC[C@H]1CC[C@H](C(=O)O)CC1)c1cc(Cl)cc2ccn(Cc3ccc4ccccc4n3)c12` [Example 53], the affinity at rat EP4 receptor [1], expressed as Ki, was 1.4 nM. For the same compound, the “Inhibitory rate (%)” value on rat EP4 receptor [2] (dose 0.01 mg/kg) turned out to be 45%.
On to `O=C(O)c1ccc(CNC(=O)c2cc(Cl)cc3ccn(Cc4ccc5ccccc5n4)c23)cc1` [Example 57], for which the melting point was 243 to 244 °C (dec.). At rat EP4 receptor [1], this compound yielded a Ki of 0.85 nM. Also, at rat EP4 receptor [2] (dose 0.03 mg/kg), the “Inhibitory rate (%)” value was determined as 113%.
Regarding `O=C(NC[C@H]1CC[C@H](C(=O)O)CC1)c1cc(C(F)(F)F)cc2ccn(Cc3ccc4ccccc4n3)c12` [Example 124], the Ki on rat EP4 receptor [1] was 1.4 nM. For the same compound, on rat EP4 receptor [2] (dose 0.03 mg/kg), the “Inhibitory rate (%)” value was 105%.
